Species on record: Rattus norvegicus
Experiment: Open TG-GATES - Regimen: Daily Repeat
Format: toxicity, organism-based, Sprague-Dawley
Set-up: regimen Daily Repeat, gender Male, age 6 weeks
Settings: in vivo, po, 450 mg/kg, route gavage, dose level High; for Eos / Fbg / Hb / Ht / Lym / MCH / MCHC / MCV / Mono / Neu / PT / Plat / RBC / Ret / WBC / APTT / Bas: tissue Blood; for KIDNEY_L / KIDNEY_R / KIDNEY_TOTAL: tissue Kidney; for ALP / ALT / AST / BUN / CRE / Ca / Cl / DBIL / GLC / IP / K / LDH / Na / PL / RALB / TBIL / TC / TG / TP / gamma-GTP: tissue Plasma

Q: For `CC(=O)Oc1ccccc1C(=O)O` [ASPIRIN], which Eos (72 h, time 3 day) is on record?
A: 0.4%

Q: What about the Fbg (72 h, time 3 day) of the same molecule?
A: 212.4 mg/dL

Q: And the Hb (72 h, time 3 day)?
A: 13.5 g/dL

Q: What about the Ht (72 h, time 3 day) of the same molecule?
A: 39.3%

Q: And the Lym (72 h, time 3 day)?
A: 81.4%

Q: And the MCH (72 h, time 3 day)?
A: 21.4 pg

Q: And the MCHC (72 h, time 3 day)?
A: 34.2%

Q: What about the MCV (72 h, time 3 day) of the same molecule?
A: 62.5 fL

Q: What about the Mono (72 h, time 3 day) of the same molecule?
A: 2%

Q: And the Neu (72 h, time 3 day)?
A: 14.8%

Q: What about the PT (72 h, time 3 day) of the same molecule?
A: 14.1 s

Q: And the Plat (72 h, time 3 day)?
A: 122.2 x10_4/uL

Q: What about the RBC (72 h, time 3 day) of the same molecule?
A: 630 x10_4/ul

Q: And the Ret (72 h, time 3 day)?
A: 4.7%

Q: What about the WBC (72 h, time 3 day) of the same molecule?
A: 126.2 x10_2/uL

Q: What about the KIDNEY_L (72 h, time 3 day) of the same molecule?
A: 1.1 g

Q: And the KIDNEY_R (72 h, time 3 day)?
A: 1.1 g

Q: And the KIDNEY_TOTAL (72 h, time 3 day)?
A: 2.2 g

Q: And the ALP (72 h, time 3 day)?
A: 880.2 IU/L

Q: And the ALT (72 h, time 3 day)?
A: 47 IU/L

Q: And the AST (72 h, time 3 day)?
A: 82.4 IU/L

Q: And the BUN (72 h, time 3 day)?
A: 14.8 mg/dL

Q: What about the CRE (72 h, time 3 day) of the same molecule?
A: 0.4 mg/dL

Q: What about the Ca (72 h, time 3 day) of the same molecule?
A: 11.2 mg/dL

Q: What about the Cl (72 h, time 3 day) of the same molecule?
A: 103 meq/L

Q: And the DBIL (72 h, time 3 day)?
A: 0.1 mg/dL

Q: What about the GLC (72 h, time 3 day) of the same molecule?
A: 188 mg/dL

Q: What about the IP (72 h, time 3 day) of the same molecule?
A: 7.1 mg/dL

Q: What about the K (72 h, time 3 day) of the same molecule?
A: 3.7 meq/L

Q: And the LDH (72 h, time 3 day)?
A: 233.4 IU/L

Q: What about the Na (72 h, time 3 day) of the same molecule?
A: 142.2 meq/L

Q: And the PL (72 h, time 3 day)?
A: 147.2 mg/dL

Q: What about the RALB (72 h, time 3 day) of the same molecule?
A: 3.3 g/dL

Q: What about the TBIL (72 h, time 3 day) of the same molecule?
A: 0.2 mg/dL

Q: And the TC (72 h, time 3 day)?
A: 62.2 mg/dL

Q: And the TG (72 h, time 3 day)?
A: 187 mg/dL

Q: And the TP (72 h, time 3 day)?
A: 5.5 g/dL

Q: And the gamma-GTP (72 h, time 3 day)?
A: 1.4 IU/L

Q: And the TERMINAL_BW ([…], time 7 day)?
A: 257.1 g

Q: What about the TERMINAL_BW ([…], time 14 day) of the same molecule?
A: 301.6 g

Q: What about the TERMINAL_BW ([…], time 28 day) of the same molecule?
A: 356.2 g

Q: And the APTT ([…], time 7 day)?
A: 22.6 s

Q: What about the Bas ([…], time 7 day) of the same molecule?
A: 0%

Q: What about the Eos ([…], time 7 day) of the same molecule?
A: 0.8%

Q: What about the Fbg ([…], time 7 day) of the same molecule?
A: 210.2 mg/dL

Q: What about the Hb ([…], time 7 day) of the same molecule?
A: 13.3 g/dL

Q: What about the Ht ([…], time 7 day) of the same molecule?
A: 39.6%

Q: What about the Lym ([…], time 7 day) of the same molecule?
A: 81.6%

Q: What about the MCH ([…], time 7 day) of the same molecule?
A: 21.2 pg

Q: And the MCHC ([…], time 7 day)?
A: 33.7%

Q: What about the MCV ([…], time 7 day) of the same molecule?
A: 63 fL

Q: What about the Mono ([…], time 7 day) of the same molecule?
A: 2.2%

Q: And the Neu ([…], time 7 day)?
A: 14%

Q: And the PT ([…], time 7 day)?
A: 13.6 s

Q: And the Plat ([…], time 7 day)?
A: 111.3 x10_4/uL

Q: What about the RBC ([…], time 7 day) of the same molecule?
A: 629.4 x10_4/ul

Q: What about the Ret ([…], time 7 day) of the same molecule?
A: 7.9%

Q: What about the WBC ([…], time 7 day) of the same molecule?
A: 159.1 x10_2/uL

Q: And the APTT ([…], time 14 day)?
A: 22.1 s

Q: And the Bas ([…], time 14 day)?
A: 0%

Q: What about the Eos ([…], time 14 day) of the same molecule?
A: 1%

Q: And the Fbg ([…], time 14 day)?
A: 210 mg/dL

Q: What about the Hb ([…], time 14 day) of the same molecule?
A: 14.5 g/dL

Q: What about the Ht ([…], time 14 day) of the same molecule?
A: 41.5%

Q: What about the Lym ([…], time 14 day) of the same molecule?
A: 78.6%

Q: And the MCH ([…], time 14 day)?
A: 21.3 pg

Q: And the MCHC ([…], time 14 day)?
A: 34.9%

Q: What about the MCV ([…], time 14 day) of the same molecule?
A: 61.1 fL

Q: And the Mono ([…], time 14 day)?
A: 2.6%

Q: What about the Neu ([…], time 14 day) of the same molecule?
A: 16.4%

Q: And the PT ([…], time 14 day)?
A: 13 s

Q: What about the Plat ([…], time 14 day) of the same molecule?
A: 125.9 x10_4/uL

Q: And the RBC ([…], time 14 day)?
A: 679.8 x10_4/ul

Q: And the Ret ([…], time 14 day)?
A: 4.7%

Q: What about the WBC ([…], time 14 day) of the same molecule?
A: 146.8 x10_2/uL

Q: And the APTT ([…], time 28 day)?
A: 23.9 s

Q: And the Bas ([…], time 28 day)?
A: 0%

Q: What about the Eos ([…], time 28 day) of the same molecule?
A: 1%

Q: And the Fbg ([…], time 28 day)?
A: 194.2 mg/dL

Q: And the Hb ([…], time 28 day)?
A: 14.9 g/dL

Q: And the Ht ([…], time 28 day)?
A: 43.2%

Q: What about the Lym ([…], time 28 day) of the same molecule?
A: 76.6%

Q: What about the MCH ([…], time 28 day) of the same molecule?
A: 20.1 pg

Q: What about the MCHC ([…], time 28 day) of the same molecule?
A: 34.5%

Q: What about the MCV ([…], time 28 day) of the same molecule?
A: 58.2 fL

Q: What about the Mono ([…], time 28 day) of the same molecule?
A: 2.6%

Q: And the Neu ([…], time 28 day)?
A: 18.8%

Q: And the PT ([…], time 28 day)?
A: 14 s

Q: And the Plat ([…], time 28 day)?
A: 90.2 x10_4/uL

Q: And the RBC ([…], time 28 day)?
A: 746.6 x10_4/ul

Q: What about the Ret ([…], time 28 day) of the same molecule?
A: 3.3%

Q: What about the WBC ([…], time 28 day) of the same molecule?
A: 115.2 x10_2/uL

Q: What about the KIDNEY_L ([…], time 7 day) of the same molecule?
A: 1.1 g

Q: What about the KIDNEY_R ([…], time 7 day) of the same molecule?
A: 1.1 g

Q: And the KIDNEY_TOTAL ([…], time 7 day)?
A: 2.3 g

Q: And the KIDNEY_L ([…], time 14 day)?
A: 1.3 g

Q: What about the KIDNEY_R ([…], time 14 day) of the same molecule?
A: 1.3 g

Q: And the KIDNEY_TOTAL ([…], time 14 day)?
A: 2.5 g

Q: What about the KIDNEY_L ([…], time 28 day) of the same molecule?
A: 1.3 g

Q: And the KIDNEY_R ([…], time 28 day)?
A: 1.4 g

Q: What about the KIDNEY_TOTAL ([…], time 28 day) of the same molecule?
A: 2.7 g

Q: What about the ALP ([…], time 7 day) of the same molecule?
A: 1005.2 IU/L

Q: And the ALT ([…], time 7 day)?
A: 51.6 IU/L

Q: And the AST ([…], time 7 day)?
A: 102.4 IU/L

Q: What about the BUN ([…], time 7 day) of the same molecule?
A: 16.8 mg/dL

Q: And the CRE ([…], time 7 day)?
A: 0.5 mg/dL

Q: And the Ca ([…], time 7 day)?
A: 11 mg/dL

Q: And the Cl ([…], time 7 day)?
A: 102.4 meq/L

Q: And the DBIL ([…], time 7 day)?
A: 0.1 mg/dL

Q: And the GLC ([…], time 7 day)?
A: 207.4 mg/dL

Q: And the IP ([…], time 7 day)?
A: 7.4 mg/dL

Q: And the K ([…], time 7 day)?
A: 4.1 meq/L

Q: And the LDH ([…], time 7 day)?
A: 248.2 IU/L

Q: What about the Na ([…], time 7 day) of the same molecule?
A: 142 meq/L

Q: And the PL ([…], time 7 day)?
A: 158.6 mg/dL

Q: What about the RALB ([…], time 7 day) of the same molecule?
A: 3.4 g/dL

Q: What about the TBIL ([…], time 7 day) of the same molecule?
A: 0.2 mg/dL

Q: And the TC ([…], time 7 day)?
A: 66.8 mg/dL

Q: What about the TG ([…], time 7 day) of the same molecule?
A: 182.4 mg/dL

Q: What about the TP ([…], time 7 day) of the same molecule?
A: 5.3 g/dL

Q: What about the gamma-GTP ([…], time 7 day) of the same molecule?
A: 1.2 IU/L

Q: What about the ALP ([…], time 14 day) of the same molecule?
A: 871 IU/L

Q: And the ALT ([…], time 14 day)?
A: 46.2 IU/L

Q: What about the AST ([…], time 14 day) of the same molecule?
A: 92.8 IU/L

Q: What about the BUN ([…], time 14 day) of the same molecule?
A: 16.4 mg/dL

Q: And the CRE ([…], time 14 day)?
A: 0.5 mg/dL

Q: And the Ca ([…], time 14 day)?
A: 10.8 mg/dL

Q: What about the Cl ([…], time 14 day) of the same molecule?
A: 101.4 meq/L

Q: And the DBIL ([…], time 14 day)?
A: 0.1 mg/dL

Q: And the GLC ([…], time 14 day)?
A: 175.8 mg/dL

Q: What about the IP ([…], time 14 day) of the same molecule?
A: 7.6 mg/dL

Q: And the K ([…], time 14 day)?
A: 4.4 meq/L

Q: What about the LDH ([…], time 14 day) of the same molecule?
A: 312 IU/L

Q: And the Na ([…], time 14 day)?
A: 141.2 meq/L

Q: What about the PL ([…], time 14 day) of the same molecule?
A: 170.6 mg/dL

Q: And the RALB ([…], time 14 day)?
A: 3.3 g/dL

Q: And the TBIL ([…], time 14 day)?
A: 0.2 mg/dL

Q: What about the TC ([…], time 14 day) of the same molecule?
A: 65.6 mg/dL

Q: What about the TG ([…], time 14 day) of the same molecule?
A: 250.6 mg/dL

Q: What about the TP ([…], time 14 day) of the same molecule?
A: 5.4 g/dL

Q: What about the gamma-GTP ([…], time 14 day) of the same molecule?
A: 0.8 IU/L

Q: And the ALP ([…], time 28 day)?
A: 771.8 IU/L

Q: And the ALT ([…], time 28 day)?
A: 40.6 IU/L

Q: What about the AST ([…], time 28 day) of the same molecule?
A: 85.6 IU/L

Q: What about the BUN ([…], time 28 day) of the same molecule?
A: 18.4 mg/dL

Q: What about the CRE ([…], time 28 day) of the same molecule?
A: 0.5 mg/dL

Q: What about the Ca ([…], time 28 day) of the same molecule?
A: 10.3 mg/dL

Q: And the Cl ([…], time 28 day)?
A: 102.6 meq/L

Q: And the DBIL ([…], time 28 day)?
A: 0.094 mg/dL

Q: What about the GLC ([…], time 28 day) of the same molecule?
A: 204.4 mg/dL

Q: And the IP ([…], time 28 day)?
A: 6.5 mg/dL

Q: What about the K ([…], time 28 day) of the same molecule?
A: 4 meq/L

Q: What about the LDH ([…], time 28 day) of the same molecule?
A: 179 IU/L

Q: And the Na ([…], time 28 day)?
A: 141.8 meq/L

Q: What about the PL ([…], time 28 day) of the same molecule?
A: 146.6 mg/dL

Q: What about the RALB ([…], time 28 day) of the same molecule?
A: 3.4 g/dL

Q: What about the TBIL ([…], time 28 day) of the same molecule?
A: 0.2 mg/dL

Q: What about the TC ([…], time 28 day) of the same molecule?
A: 58.2 mg/dL

Q: What about the TG ([…], time 28 day) of the same molecule?
A: 172.4 mg/dL

Q: What about the TP ([…], time 28 day) of the same molecule?
A: 5.2 g/dL

Q: And the gamma-GTP ([…], time 28 day)?
A: 1 IU/L

From ChEMBL document CHEMBL3885861, “Open TG-GATES”
